Data reported in US20130183435A1, “LOW TEMPERATURE PLASMA COATING FOR ANTI-BIOFILM FORMATION” (priority 2012, published 2013).

Columns and labels:
[1] = test system: S. epidermidis RP62A biofilm; assay: Susceptibility of bacterial cells in biofilm to 6 μg/ml antibiotic; assay type: cell-based; conditions: for reduction of bacterial count in biofilm: 8 hours
Procedure: Susceptibility of bacterial cells in biofilm to antibiotics was studied with a protocol established previously with modification. SS and Ti wafers (1×1 cm) were sterilized, coated with human plasma, and placed into the wells of 24-well microplates. Overnight culture of S. epidermidis was diluted 1:200 into fresh THY medium with 0.5% glucose. Aliquots (1 ml) of the cell suspensions were seeded into each well containing wafers and incubated at 37° C. for 16 hours. The wafers were gently washed three times with PBS to remove non-adherent bacterial cells. Then fresh Mueller Hinton broth (MHB) with and without 6 μg/ml vancomycin or ciprofloxacin was added into the wells containing wafers and cultured at 37° C. for 8 hours. The wafers were washed four times with PBS and then put into tubes with PBS. The biofilms on wafers were detached and disaggregated with ultrasonic bath treatment. The number of bacterial cells was quantified using the spread plate technique. Response to antibiotic treatment of a treated sample was defined as the percentage of untreated samples calculated by CFU numbers. Triplicate of wafers were used in each experiments and four independent experiments were performed for vacomycin and three independent experiments were performed for ciprofloxacin.

[2] = test system: S. epidermidis biofilm; assay: Antibiotic susceptibility assay of cells attached on wafers with different dose of ciprofloxacin; assay type: cell-based; conditions: for decrease of the number of bacteria recovered from biofilms / bacteria recovered: 128 μg/ml; for decrease of the number of bacteria recovered from biofilms: 48 hours
Procedure: Antibiotic susceptibility assay of S. epidermidis cells attached on wafers with different dose of antibiotics. Biofilm formation on the four groups of wafers in triplicate was performed as described in biofilm formation assay section. The wafers with biofilms were gently washed four times with PBS to remove non-adherent bacterial cells. Then fresh Mueller Hinton broth (MHB) with 0, 2, 8, 32, and 128 μg/ml ciprofloxacin (Sigma-Aldrich, St Louis, Mo.) was added into the wells containing wafers and cultured at 37° C. for 48 hours, with MHB medium with corresponding concentration of ciprofloxacin changed every 12 hours. The wafers were washed four times with PBS and bacteria numbers on the wafers were counted.

Row | SMILES | reduction of bacterial count in biofilm ([1]; TMS coated SS wafer) | reduction of bacterial count in biofilm ([1]; TMS coated Ti wafer) [%] | reduction of bacterial count in biofilm ([1]; uncoated SS wafer) [%] | reduction of bacterial count in biofilm ([1]; uncoated Ti wafer) [%] | number of bacteria, percent of bacteria on bare surfaces with neither TMS coating nor ciprofloxacin treatment ([2]; 8 μg/ml, TMS coated surfaces) | number of bacteria, percent of bacteria on TMS coated surfaces without ciprofloxacin treatment ([2]; 32 μg/ml, TMS coated surfaces) | decrease of the number of bacteria recovered from biofilms ([2]; uncoated SS surfaces) [%] | decrease of the number of bacteria recovered from biofilms ([2]; uncoated Ti surfaces) [%] | bacteria recovered ([2]; TMS coated SS surfaces) | bacteria recovered ([2]; TMS coated Ti surfaces) | MBC for biofilms ([2]; biofilms on TMS coated surfaces, MBC = 99.9% (3 log10 units) decrease) | MBC for bacteria in biofilms ([2]; biofilms on uncoated surfaces) | response of bacterial cells to antibiotic treatment ([1]; uncoated wafers)
1 | O=C(O)c1cn(C2CC2)c2cc(N3CCNCC3)c(F)cc2c1=O [ciprofloxacin] | 99.4±0.1% | 96.8±1.4 | 86±1.2 | 81.8±3.2 | less than 0.01% | less than 0.1% | 99.6±0.07 | 99.3±0.1 | 177±80 | 444±217 | less than 32 μg/ml | more than 128 μg/ml | –
2 | CN[C@H](CC(C)C)C(=O)N[C@H]1C(=O)N[C@@H](CC(N)=O)C(=O)N[C@H]2C(=O)N[C@H]3C(=O)N[C@H](C(=O)N[C@H](C(=O)O)c4cc(O)cc(O)c4-c4cc3ccc4O)[C@H](O)c3ccc(c(Cl)c3)Oc3cc2cc(c3O[C@@H]2O[C@H](CO)[C@@H](O)[C@H](O)[C@H]2O[C@H]2C[C@](C)(N)[C@H](O)[C@H](C)O2)Oc2ccc(cc2Cl)[C@H]1O [vacomycin, vancomycin] | about 83.8±4.3% | 91.9±1.6 | – | – | – | – | – | – | – | – | – | – | resistant
